# Data reported in paper PMC8596838, “Xylose‐Configured Cyclophellitols as Selective Inhibitors for Glucocerebrosidase” (Chembiochem, 2021).
# Like-named read-outs stand apart in the source and are kept apart here.
# Experiments:
# [1] = target: T1, GBA2 (Homo sapiens, UniProt Q9HCG7); test: Fluorogenic substrate enzymatic assay, lysate of GBA/GBA2 KO HEK293T cells overexpressing GBA2; format: biochemical; details: for (Ratio) GBA2/GBA / GBA2/GBA ratio, 3 h: IC50 ratio; for increase in GBA:GBA2 selectivity window compared to the conduritol analogue (13 or 14): IC50 ratio GBA2/GBA
# T1 construct: expressed in transfected cells; host or cells: HEK293T (GBA/GBA2 KO background for the fluorogenic assay; endogenous-GBA background with GBA2 and GBA3 overexpressed for ABPP and intact-cell assays)
# T1 sequence (Q9HCG7 1-927): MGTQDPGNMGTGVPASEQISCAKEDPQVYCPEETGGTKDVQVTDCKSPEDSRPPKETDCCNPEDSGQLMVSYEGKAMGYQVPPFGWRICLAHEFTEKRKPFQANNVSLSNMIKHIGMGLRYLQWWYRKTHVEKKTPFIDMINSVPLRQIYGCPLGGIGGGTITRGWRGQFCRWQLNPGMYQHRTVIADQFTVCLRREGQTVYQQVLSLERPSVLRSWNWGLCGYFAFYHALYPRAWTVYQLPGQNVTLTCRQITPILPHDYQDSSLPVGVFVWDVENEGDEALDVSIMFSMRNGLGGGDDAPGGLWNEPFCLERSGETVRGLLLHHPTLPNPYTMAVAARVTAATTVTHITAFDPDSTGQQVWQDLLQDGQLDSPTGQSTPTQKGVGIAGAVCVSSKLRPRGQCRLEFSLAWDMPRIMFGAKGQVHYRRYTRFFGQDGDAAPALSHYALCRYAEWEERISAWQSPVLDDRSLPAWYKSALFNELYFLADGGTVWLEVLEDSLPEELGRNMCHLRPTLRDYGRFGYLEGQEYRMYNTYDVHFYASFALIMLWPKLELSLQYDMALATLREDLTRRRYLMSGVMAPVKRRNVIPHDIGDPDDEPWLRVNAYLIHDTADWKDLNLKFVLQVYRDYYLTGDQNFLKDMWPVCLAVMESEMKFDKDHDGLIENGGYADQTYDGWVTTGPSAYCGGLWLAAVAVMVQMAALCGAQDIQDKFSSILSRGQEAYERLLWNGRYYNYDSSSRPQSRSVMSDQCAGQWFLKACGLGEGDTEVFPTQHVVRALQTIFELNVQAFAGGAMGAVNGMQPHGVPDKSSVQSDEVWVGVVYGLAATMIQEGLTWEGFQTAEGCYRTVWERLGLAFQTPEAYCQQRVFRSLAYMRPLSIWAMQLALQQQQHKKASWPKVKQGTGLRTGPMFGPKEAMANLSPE
# Experimental: (§1) Enzyme activity assays: All assays were performed with lysates of HEK293T cells or zebrafish larvae in 96‐well plates at 37 °C. Samples were diluted with McIlvaine buffer (150 mM citric acid‐Na2HPO4) to a final volume of 25 μL, at pH appropriate for each enzyme. Assays were performed by incubating the samples with 100 μL 4‐methylumbelliferyl‐β‐D‐glucoside substrates diluted in McIlvaine buffer (with 0.1 % (w/v) bovine serum albumin (BSA)) for a period of 30 min or 3 h. The substrate mixtures used for each enzyme were as follows: GBA, 3.75 mM 4‐MU‐β‐D‐glucopyranoside (Glycosynth, Warrington Cheshire, UK) at pH 5.2, supplemented with 0.2 % (w/v) sodium taurocholate, 0.1 % (v/v) Triton X‐100, 0.1 % (w/v) bovine serum albumin (BSA); GBA2, 3.75 mM 4 MU‐β‐D‐glucopyranoside at pH 5.8; GBA3, 3.75 mM 4‐MU‐β‐D‐glucopyranoside at pH 6.0. After stopping the enzyme reaction with 200 μL 1 M NaOH‐glycine (pH 10.3), 4‐methylumbelliferone fluorescence was measured with a fluorimeter LS55 (Perkin Elmer, Waltham, MA, USA) with λEX 366 nm and λEM 445 nm. Enzyme activities were determined by subtraction of background (measured for incubations without enzyme). IC50 values were determined exactly as earlier described.[36]
# The IC50 values were determined using a fluorogenic enzymatic assay. For GBA, 3.16 ng (53 fmol) of rhGBA, (recombinant human GBA, Imiglucerase) obtained from Sanofi Genzyme (Cambridge, MA, USA), was prepared in 12.5 μL McIlvaine buffer (150 mM, pH 5.2) supplemented with 0.1 % (v/v) Triton X‐100, and 0.2 % (w/v) sodium taurocholate, 0.1 % (w/v) bovine serum albumin (BSA). […] In the case of GBA2 or GBA3, lysates of GBA/GBA2 KO HEK293T cells overexpressing GBA2 or GBA3, respectively where used. The enzymatic activity of GBA, GBA2 and GBA3 were measured with 4MU‐β‐D‐glucoside substrate as described above.
# [2] = target: T2, GBA3 (Homo sapiens, UniProt Q9H227); test: Fluorogenic substrate enzymatic assay, lysate of GBA/GBA2 KO HEK293T cells overexpressing GBA3; format: biochemical; details: for (Ratio) GBA3/GBA: IC50 ratio
# T2 construct: expressed in transfected cells; host or cells: HEK293T (GBA/GBA2 KO background for the fluorogenic assay; endogenous-GBA background with GBA2 and GBA3 overexpressed for ABPP and intact-cell assays)
# T2 sequence (Q9H227 1-469): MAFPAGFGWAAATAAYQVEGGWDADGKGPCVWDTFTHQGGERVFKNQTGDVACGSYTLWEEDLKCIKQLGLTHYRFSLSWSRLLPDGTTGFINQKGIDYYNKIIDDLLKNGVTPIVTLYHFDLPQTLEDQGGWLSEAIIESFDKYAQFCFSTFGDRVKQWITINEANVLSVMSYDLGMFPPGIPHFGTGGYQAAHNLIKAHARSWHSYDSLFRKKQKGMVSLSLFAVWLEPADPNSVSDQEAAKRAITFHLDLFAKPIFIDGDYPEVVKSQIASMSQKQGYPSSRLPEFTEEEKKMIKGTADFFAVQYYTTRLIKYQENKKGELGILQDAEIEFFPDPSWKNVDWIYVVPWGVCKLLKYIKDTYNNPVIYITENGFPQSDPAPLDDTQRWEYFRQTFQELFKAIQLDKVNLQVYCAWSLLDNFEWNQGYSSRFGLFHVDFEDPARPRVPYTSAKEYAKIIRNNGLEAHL
# Experimental: Using fluorogenic substrate‐based assays, we determined apparent IC50 values at 30 min incubation time of the xylo‐cyclophellitols in rhGBA, and GBA2 and GBA3 lysates of cells expressing only each of the enzymes specifically.
# as §1
# The IC50 values were determined using a fluorogenic enzymatic assay. For GBA, 3.16 ng (53 fmol) of rhGBA, (recombinant human GBA, Imiglucerase) obtained from Sanofi Genzyme (Cambridge, MA, USA), was prepared in 12.5 μL McIlvaine buffer (150 mM, pH 5.2) supplemented with 0.1 % (v/v) Triton X‐100, and 0.2 % (w/v) sodium taurocholate, 0.1 % (w/v) bovine serum albumin (BSA). The enzyme was incubated with 12.5 μL of inhibitors diluted in McIlvaine buffer (150 mM, pH 5.2) at 37 °C for 30 min. In the case of GBA2 or GBA3, lysates of GBA/GBA2 KO HEK293T cells overexpressing GBA2 or GBA3, respectively where used. The enzymatic activity of GBA, GBA2 and GBA3 were measured with 4MU‐β‐D‐glucoside substrate as described above.
# [3] = incubation time 30 min, enzymatic assay, ±SD, n=3, read-out: In vitro apparent IC50 GBA2
# [4] = incubation time 30 min, enzymatic assay, ±SD, n=3, read-out: In vitro apparent IC50 GBA3
# [5] = 30 min incubation time, read-out: apparent IC50 GBA2
# [6] = enzymatic assay performed for 3 h, n=3, read-out: In vitro apparent IC50 GBA2, 3 h
Structure (SMILES),"(Ratio) GBA2/GBA ([1]; in vitro, 30 min)","IC50 [1, 3] [µM]","(Ratio) GBA3/GBA ([2]; in vitro, 30 min)","IC50 [2, 4] [µM]","potency against GBA2 compared to 2 ([1]; in vitro, 30 min)","potency against GBA3 compared to unsubstituted xylo-cyclophellitol aziridine 2 ([2]; in vitro, 30 min) [fold]","IC50 [1, 5] [µM]",increase in GBA:GBA2 selectivity window compared to the conduritol analogue (13 or 14) ([1]; in vitro 3 h),"GBA2/GBA ratio, 3 h ([1]; in vitro 3 h)","IC50 [1, 6] [µM]",increase in inhibitory activity towards GBA2 of aziridines relative to epoxide analogues ([1]; in vitro 3 h),"IC50 ([2]; 30 min incubation time, read-out: apparent IC50 GBA3) [µM]"
"OC[C@@H]1[C@@H](O)[C@H](O)[C@@H](O)[C@@H]2N[C@H]12 [compound 4, cyclophellitol aziridine, reference compound]",0.8,0.279 ± 0.0445,99,33.8 ± 2.43,,,,,,,,
[N-]=[N+]=NCCCCCCCCN1[C@H]2[C@H](O)[C@@H](O)[C@H](O)C[C@H]21 (stereo partly drawn) [compound 5],5317,6.38 ± 1.15,486,0.583 ± 0.202,five‐fold higher,> 40,,,,,,
"O[C@@H]1[C@@H](O)[C@H](O)C[C@H]2N[C@@H]12 [compound 2, β‐D‐xylo‐Cyclophellitol aziridine]",44,31.6 ± 0.926,>35,> 25,,,> 25,three‐fold increase,22,5.31 ± 0.12,10–20 fold,
"CN1/C(=C/C=C/C=C/C2=[N+](CCCCCC(=O)NCc3cn(C[C@@H]4[C@@H](O)[C@H](O)[C@@H](O)[C@@H]5O[C@H]45)nn3)c3ccccc3C2(C)C)C(C)(C)c2ccccc21 [ABP 9, reference compound]",> 111,,128,5.78 ± 0.079,,,,,,,,
"O[C@@H]1[C@@H](O)[C@H](O)C[C@H]2O[C@@H]12 [compound 1, xylo‐cyclophellitol]",>19,> 50,>19,> 50,,,> 25,seven‐fold increase,272,122 ± 30.2,,> 25
"OC[C@@H]1[C@@H](O)[C@H](O)[C@@H](O)[C@@H]2O[C@H]12 [compound 3, cyclophellitol]",0.4,0.148 ± 0.00751,129,51.5 ± 4.01,,,,,,,,
CN1/C(=C/C=C/C=C/C2=[N+](CCCCCC(=O)NCc3cn(CCCCCCCCN4[C@H]5[C@H](O)[C@@H](O)[C@H](O)C[C@H]54)nn3)c3ccccc3C2(C)C)C(C)(C)c2ccccc21 (stereo partly drawn) [ABP 6],84,0.544 ± 0.11,1561,10.1 ± 1,,,,,,,,
